Experimental data as given in the NIST ThermoML archive (doi:10.1016/j.jct.2004.12.002).
± gives the expanded uncertainty stated by the source.

Tests used:
[1] = 101 kPa, Liquid
[2] = xn = mol fraction of the nth substance listed; settings: 101 kPa, Liquid

Which mass density ([1]; 293.22 K) does the source give for `CCCCCCC` [heptane] here?
The mass density was 683.82 ± 0.65 kg/m3.

And the mass density ([1]; 298.16 K)?
The mass density was 679.75 ± 0.65 kg/m3.

What about the mass density ([1]; 303.17 K) of the same compound?
Its mass density is 675.51 ± 0.66 kg/m3.

What about the mass density ([1]; 308.17 K) of the same compound?
The mass density was 671.21 ± 0.67 kg/m3.

And the mass density ([1]; 313.17 K)?
The mass density was 666.97 ± 0.67 kg/m3.

What about the mass density ([1]; 318.18 K) of the same compound?
Its mass density is 662.67 ± 0.68 kg/m3.

Which results are given for `CCCCCCC` [heptane] + CCO?
mass density ([2]; 293.21 K, x2 = 0.2043): 691.74 ± 0.63 kg/m3; mass density ([2]; 293.21 K, x2 = 0.3044): 697.14 ± 0.62 kg/m3; mass density ([2]; 293.21 K, x2 = 0.3971): 703.04 ± 0.61 kg/m3; mass density ([2]; 293.21 K, x2 = 0.4975): 710.62 ± 0.6 kg/m3; mass density ([2]; 293.21 K, x2 = 0.6954): 730.78 ± 0.57 kg/m3; mass density ([2]; 293.21 K, x2 = 0.8023): 745.94 ± 0.54 kg/m3; mass density ([2]; 293.21 K, x2 = 0.9009): 764.36 ± 0.51 kg/m3; mass density ([2]; 293.22 K, x2 = 0): 683.82 ± 0.65 kg/m3; mass density ([2]; 293.22 K, x2 = 0.0237): 684.36 ± 0.65 kg/m3; mass density ([2]; 293.22 K, x2 = 0.0507): 685.26 ± 0.64 kg/m3; mass density ([2]; 293.22 K, x2 = 0.1041): 687.27 ± 0.64 kg/m3; mass density ([2]; 293.22 K, x2 = 0.6043): 720.54 ± 0.58 kg/m3; mass density ([2]; 293.22 K, x2 = 0.9531): 776.53 ± 0.49 kg/m3; mass density ([2]; 298.16 K, x2 = 0): 679.75 ± 0.65 kg/m3; mass density ([2]; 298.17 K, x2 = 0.0237): 680.19 ± 0.65 kg/m3; mass density ([2]; 298.17 K, x2 = 0.0507): 681.04 ± 0.65 kg/m3; mass density ([2]; 298.17 K, x2 = 0.1041): 683.06 ± 0.65 kg/m3; mass density ([2]; 298.17 K, x2 = 0.2043): 687.5 ± 0.64 kg/m3; mass density ([2]; 298.17 K, x2 = 0.3044): 692.93 ± 0.63 kg/m3; mass density ([2]; 298.17 K, x2 = 0.3971): 698.76 ± 0.62 kg/m3; mass density ([2]; 298.17 K, x2 = 0.4975): 706.35 ± 0.6 kg/m3; mass density ([2]; 298.17 K, x2 = 0.6043): 716.27 ± 0.59 kg/m3; mass density ([2]; 298.17 K, x2 = 0.6954): 726.58 ± 0.57 kg/m3; mass density ([2]; 298.17 K, x2 = 0.8023): 741.81 ± 0.54 kg/m3; mass density ([2]; 298.17 K, x2 = 0.9009): 760.18 ± 0.51 kg/m3; mass density ([2]; 298.17 K, x2 = 0.9531): 772.37 ± 0.49 kg/m3; mass density ([2]; 303.17 K, x2 = 0): 675.51 ± 0.66 kg/m3; mass density ([2]; 303.17 K, x2 = 0.0237): 675.81 ± 0.66 kg/m3; mass density ([2]; 303.17 K, x2 = 0.0507): 676.65 ± 0.66 kg/m3; mass density ([2]; 303.17 K, x2 = 0.1041): 678.74 ± 0.65 kg/m3; mass density ([2]; 303.17 K, x2 = 0.2043): 683.12 ± 0.64 kg/m3; mass density ([2]; 303.17 K, x2 = 0.3044): 688.45 ± 0.63 kg/m3; mass density ([2]; 303.17 K, x2 = 0.3971): 694.32 ± 0.62 kg/m3; mass density ([2]; 303.17 K, x2 = 0.4975): 701.88 ± 0.61 kg/m3; mass density ([2]; 303.17 K, x2 = 0.6043): 711.77 ± 0.59 kg/m3; mass density ([2]; 303.17 K, x2 = 0.6954): 722.09 ± 0.58 kg/m3; mass density ([2]; 303.17 K, x2 = 0.8023): 737.39 ± 0.55 kg/m3; mass density ([2]; 303.17 K, x2 = 0.9009): 755.87 ± 0.52 kg/m3; mass density ([2]; 303.17 K, x2 = 0.9531): 768.14 ± 0.5 kg/m3; mass density ([2]; 308.17 K, x2 = 0): 671.21 ± 0.67 kg/m3; mass density ([2]; 308.17 K, x2 = 0.0237): 671.53 ± 0.66 kg/m3; mass density ([2]; 308.17 K, x2 = 0.0507): 672.35 ± 0.66 kg/m3; mass density ([2]; 308.17 K, x2 = 0.1041): 674.32 ± 0.66 kg/m3; mass density ([2]; 308.17 K, x2 = 0.2043): 678.62 ± 0.65 kg/m3; mass density ([2]; 308.17 K, x2 = 0.3044): 683.9 ± 0.64 kg/m3; mass density ([2]; 308.17 K, x2 = 0.3971): 689.82 ± 0.63 kg/m3; mass density ([2]; 308.17 K, x2 = 0.4975): 697.41 ± 0.62 kg/m3; mass density ([2]; 308.17 K, x2 = 0.6043): 707.35 ± 0.6 kg/m3; mass density ([2]; 308.17 K, x2 = 0.6954): 717.65 ± 0.58 kg/m3; mass density ([2]; 308.17 K, x2 = 0.8023): 733.18 ± 0.56 kg/m3; mass density ([2]; 308.17 K, x2 = 0.9009): 751.57 ± 0.53 kg/m3; mass density ([2]; 308.17 K, x2 = 0.9531): 763.83 ± 0.51 kg/m3; mass density ([2]; 313.17 K, x2 = 0): 666.97 ± 0.67 kg/m3; mass density ([2]; 313.17 K, x2 = 0.0237): 667.19 ± 0.67 kg/m3; mass density ([2]; 313.17 K, x2 = 0.0507): 667.92 ± 0.67 kg/m3; mass density ([2]; 313.17 K, x2 = 0.1041): 669.78 ± 0.67 kg/m3; mass density ([2]; 313.17 K, x2 = 0.2043): 674.12 ± 0.66 kg/m3; mass density ([2]; 313.17 K, x2 = 0.3044): 679.46 ± 0.65 kg/m3; mass density ([2]; 313.17 K, x2 = 0.3971): 685.29 ± 0.64 kg/m3; mass density ([2]; 313.17 K, x2 = 0.4975): 692.92 ± 0.62 kg/m3; mass density ([2]; 313.17 K, x2 = 0.6043): 702.8 ± 0.61 kg/m3; mass density ([2]; 313.17 K, x2 = 0.6954): 713.21 ± 0.59 kg/m3; mass density ([2]; 313.17 K, x2 = 0.8023): 728.57 ± 0.57 kg/m3; mass density ([2]; 313.17 K, x2 = 0.9009): 747.21 ± 0.53 kg/m3; mass density ([2]; 313.17 K, x2 = 0.9531): 759.41 ± 0.51 kg/m3; mass density ([2]; 318.17 K, x2 = 0.0237): 663.59 ± 0.68 kg/m3; mass density ([2]; 318.17 K, x2 = 0.1041): 665.46 ± 0.67 kg/m3; mass density ([2]; 318.17 K, x2 = 0.2043): 669.66 ± 0.66 kg/m3; mass density ([2]; 318.17 K, x2 = 0.3044): 674.88 ± 0.65 kg/m3; mass density ([2]; 318.17 K, x2 = 0.3971): 680.74 ± 0.64 kg/m3; mass density ([2]; 318.17 K, x2 = 0.4975): 688.34 ± 0.63 kg/m3; mass density ([2]; 318.17 K, x2 = 0.6043): 698.25 ± 0.61 kg/m3; mass density ([2]; 318.17 K, x2 = 0.6954): 708.71 ± 0.59 kg/m3; mass density ([2]; 318.17 K, x2 = 0.8023): 724.14 ± 0.57 kg/m3; mass density ([2]; 318.17 K, x2 = 0.9009): 742.91 ± 0.54 kg/m3; mass density ([2]; 318.18 K, x2 = 0): 662.67 ± 0.68 kg/m3; mass density ([2]; 318.18 K, x2 = 0.0507): 662.82 ± 0.68 kg/m3; mass density ([2]; 318.18 K, x2 = 0.9531): 754.95 ± 0.52 kg/m3

With `CCO` [ethanol] + CCCCCCC as the compound, how does the mass density ([2]; 293.22 K, x1 = 1) read?
The mass density was 789.54 ± 0.47 kg/m3.

What about the mass density ([2]; 298.16 K, x1 = 1) of the same compound?
The mass density was 785.46 ± 0.47 kg/m3.

And the mass density ([2]; 303.17 K, x1 = 1)?
The mass density was 781.05 ± 0.48 kg/m3.

And the mass density ([2]; 308.17 K, x1 = 1)?
The mass density was 776.75 ± 0.49 kg/m3.

And the mass density ([2]; 313.17 K, x1 = 1)?
The mass density was 772.42 ± 0.49 kg/m3.

And the mass density ([2]; 318.18 K, x1 = 1)?
Its mass density is 768 ± 0.5 kg/m3.

What does the source list for `CCO` [ethanol]?
mass density ([1]; 293.22 K): 789.54 ± 0.47 kg/m3; mass density ([1]; 298.16 K): 785.46 ± 0.47 kg/m3; mass density ([1]; 303.17 K): 781.05 ± 0.48 kg/m3; mass density ([1]; 308.17 K): 776.75 ± 0.49 kg/m3; mass density ([1]; 313.17 K): 772.42 ± 0.49 kg/m3; mass density ([1]; 318.18 K): 768 ± 0.5 kg/m3
